Source: ChEMBL document CHEMBL1201862, “PubChem BioAssay data set” (2004)
One block for each molecule: values may come before it. Activity calls are given as the source filed them.

Legend:
[1] = biological target: Mitochondrial peptide methionine sulfoxide reductase (Bos taurus, UniProt P54149); assay: Absorbance-based biochemical high throughput dose response assay for activators of Methionine sulfoxide reductase A (MsrA).; assay type: functional
[2] = ARNT/TACC3 interaction disruptors, potency, confirmation, biochemical, AlphaScreen, cherry-picked samples (AID 651703); assay type: functional, Homo sapiens;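 also: His-tagged ARNT PAS-B domain paired with GST-TACC3 E629A dimer coactivator fragment; potency of inhibitors that break up the complex and lower AlphaScreen signal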
[3] = biological target: Induced myeloid leukemia cell differentiation protein Mcl-1 (Homo sapiens, UniProt Q07820); assay type: functional
[4] = Counterscreen for AddAB inhibitors: absorbance-based bacterial cell-based high throughput dose response assay for inhibitors of bacterial viability. [Related pubchem assays (depositor defined):AID435030, AID449728, AID449731, AID488942, AID488955, AID488956]; assay type: functional
[5] = system: Vero; assay: Vero cell cytotoxicity, cytotoxicity control for flavivirus capping enzyme inhibitors (AID 588742); assay type: functional; conditions: Chlorocebus sabaeus
[6] = biological target: Megakaryocyte-associated tyrosine-protein kinase (Homo sapiens, UniProt P42679); assay type: functional;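 also: affinity measured as one member of a kinase panel (Navigating the Kinome) against MATK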
[7] = biological target: Dual specificity mitogen-activated protein kinase kinase 1 (Homo sapiens, UniProt Q02750); assay: Navigating the Kinome. Panel member name: MAP2K1; assay type: functional
[8] = biological target: Ribosomal protein S6 kinase beta-1 (Homo sapiens, UniProt P23443); assay type: functional;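 also: measured as one member of a kinome-wide profiling panel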
[9] = biological target: Tyrosine-protein kinase receptor TYRO3 (Homo sapiens, UniProt Q06418); assay type: functional;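 also: TYRO3 value obtained as one member of a kinome-wide profiling panel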
[10] = biological target: Serine/threonine-protein kinase D3 (Homo sapiens, UniProt O94806); assay type: functional;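 also: determined within a kinase panel screen, with PRKCN as the panel member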
[11] = biological target: Testis-specific serine/threonine-protein kinase 2 (Homo sapiens, UniProt Q96PF2); assay type: functional;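 also: part of the Navigating the Kinome panel, target entry STK22B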
[12] = biological target: Serine/threonine-protein kinase pim-1 (Homo sapiens, UniProt P11309); assay type: functional
[13] = biological target: MAP kinase-activated protein kinase 2 (Homo sapiens, UniProt P49137); assay type: functional;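 also: measured as one member of a kinome-wide kinase panel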
[14] = biological target: Tyrosine-protein kinase Lyn (Homo sapiens, UniProt P07948); assay type: functional;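 also: lyn as one member of a kinase panel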
[15] = biological target: Serine/threonine-protein kinase N2 (Homo sapiens, UniProt Q16513); assay type: functional
[16] = biological target: Serine/threonine-protein kinase TAO1 (Homo sapiens, UniProt Q7L7X3); assay type: functional
[17] = biological target: Tyrosine-protein kinase Blk (Homo sapiens, UniProt P51451); assay type: functional;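 also: obtained as one member of a kinome-wide kinase assay panel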
[18] = biological target: Homeodomain-interacting protein kinase 2 (Homo sapiens, UniProt Q9H2X6); assay type: functional;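 also: measured within a kinome-wide kinase profiling panel, HIPK2 being one panel member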
[19] = biological target: Calcium/calmodulin-dependent protein kinase kinase 2 (Homo sapiens, UniProt Q96RR4); assay: Navigating the Kinome. Panel member name: CAMKK2; assay type: functional
[20] = biological target: Insulin receptor (Homo sapiens, UniProt P06213); assay type: functional;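 also: insulin receptor kinase tested as one member of a kinome-wide kinase panel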
[21] = biological target: Non-receptor tyrosine-protein kinase TYK2 (Homo sapiens, UniProt P29597); assay type: functional
[22] = biological target: Dual specificity tyrosine-phosphorylation-regulated kinase 3 (Homo sapiens, UniProt O43781); assay type: functional;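 also: measured as one member of a broad kinase panel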
[23] = biological target: Receptor tyrosine-protein kinase erbB-2 (Homo sapiens, UniProt P04626); assay: Navigating the Kinome. Panel member name: ERBB2; assay type: functional
[24] = biological target: Casein kinase I isoform delta (Homo sapiens, UniProt P48730); assay type: functional;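 also: measured as one member (CSNK1D) of a kinome panel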
[25] = biological target: Tyrosine-protein kinase ABL1 (Homo sapiens, UniProt P00519); assay type: functional
[26] = biological target: Ephrin type-A receptor 2 (Homo sapiens, UniProt P29317); assay type: functional;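 also: EPHA2 tested as one member of a kinome-wide kinase panel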
[27] = biological target: Insulin-like growth factor 1 receptor (Homo sapiens, UniProt P08069); assay: Navigating the Kinome. Panel member name: IGF1R; assay type: functional
[28] = biological target: Serine/threonine-protein kinase Nek4 (Homo sapiens, UniProt P51957); assay type: functional
[29] = biological target: Dual specificity tyrosine-phosphorylation-regulated kinase 4 (Homo sapiens, UniProt Q9NR20); assay type: functional
[30] = biological target: Protein kinase C iota type (Homo sapiens, UniProt P41743); assay type: functional;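 also: measured within a kinome-wide kinase panel, PRKCI as panel member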
[31] = biological target: cAMP-dependent protein kinase catalytic subunit PRKX (Homo sapiens, UniProt P51817); assay type: functional
[32] = biological target: Maternal embryonic leucine zipper kinase (Homo sapiens, UniProt Q14680); assay type: functional
[33] = biological target: Leucine-rich repeat serine/threonine-protein kinase 2 (Homo sapiens, UniProt Q5S007); assay type: functional;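 also: value from a broad kinome-wide panel profiling study in which LRRK2 was one of the kinases tested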
[34] = biological target: Vascular endothelial growth factor receptor 3 (Homo sapiens, UniProt P35916); assay type: functional;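 also: value from a kinome-wide profiling panel, with FLT4 as the panel member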
[35] = biological target: Tyrosine-protein kinase Fyn (Homo sapiens, UniProt P06241); assay type: functional
[36] = biological target: 3-phosphoinositide-dependent protein kinase 1 (Homo sapiens, UniProt O15530); assay type: functional;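 also: value comes from the Navigating the Kinome panel, PDPK1 member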
[37] = biological target: Serine/threonine-protein kinase DCLK1 (Homo sapiens, UniProt O15075); assay type: functional;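 also: affinity for DCLK1 (listed as DCAMKL1) measured as one member of a kinome-wide kinase profiling panel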
[38] = biological target: Cyclin-dependent kinase 8 (Homo sapiens, UniProt P49336); assay: Navigating the Kinome. Panel member name: CDK8; assay type: functional
[39] = biological target: BDNF/NT-3 growth factors receptor (Homo sapiens, UniProt Q16620); assay type: functional;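 also: NTRK2 measured as one member of a broad kinome-wide kinase profiling panel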
[40] = biological target: cAMP-dependent protein kinase catalytic subunit alpha (Homo sapiens, UniProt P17612); assay type: functional
[41] = biological target: Serine/threonine-protein kinase MRCK alpha (Homo sapiens, UniProt Q5VT25); assay type: functional
[42] = biological target: Macrophage colony-stimulating factor 1 receptor (Homo sapiens, UniProt P07333); assay type: functional;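 also: value comes from the Navigating the Kinome screening panel, CSF1R member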
[43] = biological target: Serine/threonine-protein kinase BRSK1 (Homo sapiens, UniProt Q8TDC3); assay type: functional;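 also: measured within a kinome-wide kinase panel, with the target listed as KIAA1811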
[44] = biological target: Mitogen-activated protein kinase 10 (Homo sapiens, UniProt P53779); assay: Navigating the Kinome. Panel member name: MAPK10; assay type: functional
[45] = biological target: Mitogen-activated protein kinase kinase kinase 10 (Homo sapiens, UniProt Q02779); assay: Navigating the Kinome. Panel member name: MAP3K10; assay type: functional
[46] = biological target: Tyrosine-protein kinase FRK (Homo sapiens, UniProt P42685); assay type: functional;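 also: FRK tested as one member of a kinome panel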

Tyrosine-protein kinase ABL1, sequence (P00519 whole entry): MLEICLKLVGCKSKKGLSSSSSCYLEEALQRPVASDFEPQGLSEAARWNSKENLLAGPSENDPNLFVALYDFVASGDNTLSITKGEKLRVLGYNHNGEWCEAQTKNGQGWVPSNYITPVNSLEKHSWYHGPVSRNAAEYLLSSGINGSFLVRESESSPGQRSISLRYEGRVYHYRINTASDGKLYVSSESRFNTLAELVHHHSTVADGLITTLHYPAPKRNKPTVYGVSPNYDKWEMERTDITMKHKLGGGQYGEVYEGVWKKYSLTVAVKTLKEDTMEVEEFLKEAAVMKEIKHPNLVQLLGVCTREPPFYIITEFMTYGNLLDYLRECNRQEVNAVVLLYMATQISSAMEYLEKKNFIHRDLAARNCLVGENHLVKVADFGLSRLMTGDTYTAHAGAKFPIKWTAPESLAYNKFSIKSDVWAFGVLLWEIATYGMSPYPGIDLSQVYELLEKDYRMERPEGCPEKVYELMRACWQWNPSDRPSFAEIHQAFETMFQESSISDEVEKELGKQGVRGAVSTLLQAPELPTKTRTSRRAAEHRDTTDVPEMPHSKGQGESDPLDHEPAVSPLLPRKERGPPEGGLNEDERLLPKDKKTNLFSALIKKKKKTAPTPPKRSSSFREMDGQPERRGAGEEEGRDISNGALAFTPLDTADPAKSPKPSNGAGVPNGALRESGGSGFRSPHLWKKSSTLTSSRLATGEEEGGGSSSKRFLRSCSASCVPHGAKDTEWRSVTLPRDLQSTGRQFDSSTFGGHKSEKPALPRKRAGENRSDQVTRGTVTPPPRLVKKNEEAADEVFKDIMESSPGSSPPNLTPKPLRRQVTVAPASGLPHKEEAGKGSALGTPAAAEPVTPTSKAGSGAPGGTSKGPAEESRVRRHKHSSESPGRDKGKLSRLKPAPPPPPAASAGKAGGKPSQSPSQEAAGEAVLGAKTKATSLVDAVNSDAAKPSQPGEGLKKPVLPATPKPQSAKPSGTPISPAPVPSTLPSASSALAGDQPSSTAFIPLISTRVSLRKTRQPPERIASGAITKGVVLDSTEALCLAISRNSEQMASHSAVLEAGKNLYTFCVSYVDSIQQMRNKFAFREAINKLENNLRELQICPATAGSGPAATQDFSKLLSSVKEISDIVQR
Tyrosine-protein kinase Fyn, sequence (P06241 whole entry): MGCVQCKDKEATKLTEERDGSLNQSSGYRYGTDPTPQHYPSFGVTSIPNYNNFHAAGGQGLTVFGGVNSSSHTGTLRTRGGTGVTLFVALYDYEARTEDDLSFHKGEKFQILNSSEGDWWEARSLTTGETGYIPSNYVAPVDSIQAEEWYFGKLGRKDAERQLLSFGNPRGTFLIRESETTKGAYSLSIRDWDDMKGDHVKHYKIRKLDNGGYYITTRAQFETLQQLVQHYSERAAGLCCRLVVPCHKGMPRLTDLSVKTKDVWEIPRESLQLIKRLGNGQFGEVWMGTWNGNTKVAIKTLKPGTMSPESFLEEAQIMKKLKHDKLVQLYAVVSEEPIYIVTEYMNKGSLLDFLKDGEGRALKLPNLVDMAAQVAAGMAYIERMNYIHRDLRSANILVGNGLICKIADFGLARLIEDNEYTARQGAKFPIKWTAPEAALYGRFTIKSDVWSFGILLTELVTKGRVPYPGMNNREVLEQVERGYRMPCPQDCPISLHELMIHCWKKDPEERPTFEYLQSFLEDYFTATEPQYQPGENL
Protein kinase C iota type, sequence (P41743 whole entry): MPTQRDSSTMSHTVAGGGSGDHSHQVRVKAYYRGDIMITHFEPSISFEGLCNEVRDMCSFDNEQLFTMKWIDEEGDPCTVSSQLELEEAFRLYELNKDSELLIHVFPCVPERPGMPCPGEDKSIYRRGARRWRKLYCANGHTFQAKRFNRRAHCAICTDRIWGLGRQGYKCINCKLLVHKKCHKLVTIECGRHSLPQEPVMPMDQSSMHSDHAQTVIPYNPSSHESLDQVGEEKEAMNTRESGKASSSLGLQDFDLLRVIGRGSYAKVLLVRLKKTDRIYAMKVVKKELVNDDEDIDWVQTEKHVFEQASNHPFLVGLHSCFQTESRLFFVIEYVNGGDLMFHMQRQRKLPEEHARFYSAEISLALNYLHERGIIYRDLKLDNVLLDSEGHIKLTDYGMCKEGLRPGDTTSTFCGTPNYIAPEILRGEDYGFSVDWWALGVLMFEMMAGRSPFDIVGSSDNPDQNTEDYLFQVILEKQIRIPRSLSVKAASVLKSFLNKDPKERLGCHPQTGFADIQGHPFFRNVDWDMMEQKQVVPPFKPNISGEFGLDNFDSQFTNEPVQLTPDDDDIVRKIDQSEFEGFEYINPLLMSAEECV
Induced myeloid leukemia cell differentiation protein Mcl-1, sequence (Q07820 whole entry): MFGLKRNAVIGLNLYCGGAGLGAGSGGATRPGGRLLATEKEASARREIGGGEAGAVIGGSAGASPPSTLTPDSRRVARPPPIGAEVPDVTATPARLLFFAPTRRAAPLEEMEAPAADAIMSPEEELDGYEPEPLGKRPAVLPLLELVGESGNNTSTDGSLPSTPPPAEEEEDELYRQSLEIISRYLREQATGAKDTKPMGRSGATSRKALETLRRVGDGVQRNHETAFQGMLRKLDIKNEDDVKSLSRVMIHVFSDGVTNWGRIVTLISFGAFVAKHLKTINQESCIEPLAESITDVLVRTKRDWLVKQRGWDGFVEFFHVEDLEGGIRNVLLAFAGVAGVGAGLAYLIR
Calcium/calmodulin-dependent protein kinase kinase 2, sequence (Q96RR4 whole entry): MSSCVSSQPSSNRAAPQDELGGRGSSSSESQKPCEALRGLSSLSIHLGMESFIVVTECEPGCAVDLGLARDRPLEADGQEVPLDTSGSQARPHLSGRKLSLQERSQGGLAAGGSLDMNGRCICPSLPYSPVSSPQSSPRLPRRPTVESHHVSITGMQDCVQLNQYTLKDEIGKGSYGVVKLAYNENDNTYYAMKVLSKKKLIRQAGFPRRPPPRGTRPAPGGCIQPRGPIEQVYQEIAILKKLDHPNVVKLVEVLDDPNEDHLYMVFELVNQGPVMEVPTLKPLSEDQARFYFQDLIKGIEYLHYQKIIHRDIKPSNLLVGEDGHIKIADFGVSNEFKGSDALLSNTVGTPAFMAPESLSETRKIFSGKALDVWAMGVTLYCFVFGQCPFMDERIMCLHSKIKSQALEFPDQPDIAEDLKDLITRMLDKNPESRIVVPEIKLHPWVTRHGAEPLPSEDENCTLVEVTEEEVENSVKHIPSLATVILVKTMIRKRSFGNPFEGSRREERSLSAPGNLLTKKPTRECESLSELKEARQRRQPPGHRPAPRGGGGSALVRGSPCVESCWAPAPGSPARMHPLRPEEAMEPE
Dual specificity tyrosine-phosphorylation-regulated kinase 4, sequence (Q9NR20 whole entry): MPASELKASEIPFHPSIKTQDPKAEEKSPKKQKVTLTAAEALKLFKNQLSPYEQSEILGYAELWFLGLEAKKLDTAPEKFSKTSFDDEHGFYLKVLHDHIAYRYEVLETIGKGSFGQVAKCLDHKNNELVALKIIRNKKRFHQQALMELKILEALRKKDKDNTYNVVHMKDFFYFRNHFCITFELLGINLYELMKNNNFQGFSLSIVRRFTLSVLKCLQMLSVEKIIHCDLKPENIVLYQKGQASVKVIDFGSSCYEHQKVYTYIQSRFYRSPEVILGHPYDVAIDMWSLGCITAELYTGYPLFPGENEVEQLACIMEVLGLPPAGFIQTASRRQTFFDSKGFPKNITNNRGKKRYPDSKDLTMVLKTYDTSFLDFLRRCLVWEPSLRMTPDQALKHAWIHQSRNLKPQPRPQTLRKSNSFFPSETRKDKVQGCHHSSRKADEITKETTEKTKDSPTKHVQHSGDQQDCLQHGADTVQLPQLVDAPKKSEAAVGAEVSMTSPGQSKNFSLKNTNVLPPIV
Megakaryocyte-associated tyrosine-protein kinase, sequence (P42679 whole entry): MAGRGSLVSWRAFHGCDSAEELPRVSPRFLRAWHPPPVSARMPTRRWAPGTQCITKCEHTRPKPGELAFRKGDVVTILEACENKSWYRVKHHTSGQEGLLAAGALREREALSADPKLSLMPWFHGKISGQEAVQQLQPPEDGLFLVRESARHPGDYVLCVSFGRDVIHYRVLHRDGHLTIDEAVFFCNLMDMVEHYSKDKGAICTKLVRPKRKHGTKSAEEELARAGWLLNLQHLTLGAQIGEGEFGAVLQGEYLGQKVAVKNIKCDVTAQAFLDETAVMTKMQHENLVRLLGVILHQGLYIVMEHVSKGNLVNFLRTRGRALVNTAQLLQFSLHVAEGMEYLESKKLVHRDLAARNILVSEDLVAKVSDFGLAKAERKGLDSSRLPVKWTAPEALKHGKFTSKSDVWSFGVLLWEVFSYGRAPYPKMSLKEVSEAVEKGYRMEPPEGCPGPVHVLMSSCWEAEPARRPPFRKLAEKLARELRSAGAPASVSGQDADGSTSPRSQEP
Tyrosine-protein kinase Blk, sequence (P51451 whole entry): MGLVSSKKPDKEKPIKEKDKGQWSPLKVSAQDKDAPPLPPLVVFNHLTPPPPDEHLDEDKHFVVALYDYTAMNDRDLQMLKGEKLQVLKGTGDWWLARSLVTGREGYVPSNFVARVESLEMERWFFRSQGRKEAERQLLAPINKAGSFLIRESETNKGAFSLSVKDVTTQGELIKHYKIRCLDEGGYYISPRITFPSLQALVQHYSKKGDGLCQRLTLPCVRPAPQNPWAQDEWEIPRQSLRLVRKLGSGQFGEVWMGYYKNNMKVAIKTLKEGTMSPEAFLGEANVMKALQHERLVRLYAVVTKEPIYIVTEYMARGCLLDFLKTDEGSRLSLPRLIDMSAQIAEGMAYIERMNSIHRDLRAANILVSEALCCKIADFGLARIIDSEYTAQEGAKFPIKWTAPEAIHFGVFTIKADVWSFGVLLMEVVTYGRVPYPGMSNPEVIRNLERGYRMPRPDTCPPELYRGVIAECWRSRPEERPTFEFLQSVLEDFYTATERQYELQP
Mitochondrial peptide methionine sulfoxide reductase, sequence (P54149 whole entry, the tested form may be a part): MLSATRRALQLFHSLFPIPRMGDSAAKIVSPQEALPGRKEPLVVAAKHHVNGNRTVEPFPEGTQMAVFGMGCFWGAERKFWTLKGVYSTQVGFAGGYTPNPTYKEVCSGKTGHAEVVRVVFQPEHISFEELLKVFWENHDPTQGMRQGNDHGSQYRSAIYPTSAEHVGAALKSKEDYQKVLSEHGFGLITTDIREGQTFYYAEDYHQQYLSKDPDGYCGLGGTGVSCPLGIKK

EC50 [1]: 22.1 µM (inactive)
Structure (SMILES): O=C(COC(=O)c1ccc([N+](=O)[O-])s1)NCCc1ccccc1
AC50 [2]: 83.7 µM (active)

Structure (SMILES): COCC/N=c1\scc(-c2cccs2)n1/N=C/c1ccc(O)c(O)c1O
IC50 [3]: 5.17 µM (active)
IC50 [4]: > 119 µM (inactive)
CC50 [5]: 22.8 µM (active)

Ki [6]: 1.58 µM (active)
Ki [7]: 31.6 nM (active)
Ki [8]: 251 nM (active)
Ki [9]: > 2.51 µM (inactive)
Ki [10]: 158 nM (active)
Ki [11]: > 1 µM (inactive)
Ki [12]: 1 µM (active)
Ki [13]: 1.26 µM (active)
Ki [14]: > 1 µM (inactive)
Ki [15]: 12.6 nM (active)
Ki [16]: 2.51 µM (active)
Ki [17]: > 794 nM (inactive)
Ki [18]: 79.4 nM (active)
Ki [19]: > 2.51 µM (inactive)
Ki [20]: > 3.98 µM (inactive)
Ki [21]: > 1.26 µM (inactive)
Ki [22]: 50.1 nM (active)
Ki [23]: 1 µM (active)
Ki [24]: 200 nM (active)
Ki [25]: > 631 nM (inactive)
Ki [26]: > 3.16 µM (inactive)
Ki [27]: > 2 µM (inactive)
Ki [28]: 794 nM (active)
Ki [29]: 1.58 µM (active)
Ki [30]: 398 nM (active)
Ki [31]: 398 nM (active)
Ki [32]: 200 nM (active)
Ki [33]: 31.6 nM (active)
Ki [34]: 63.1 nM (active)
Ki [35]: > 794 nM (inactive)
Ki [36]: 50.1 nM (active)
Ki [37]: > 10 µM (inactive)
Ki [38]: 501 nM (active)
Ki [39]: > 5.01 µM (inactive)
Ki [40]: 126 nM (active)
Ki [41]: 20 nM (active)
Ki [42]: 200 nM (active)
Ki [43]: 1.26 µM (active)
Ki [44]: > 3.16 µM (inactive)
Ki [45]: 79.4 nM (active)
Ki [46]: 1 µM (active)
Structure (SMILES): OC1CCC(Nc2cc(Cl)nc(-c3c[nH]c4ncccc34)n2)CC1 (stereo unspecified)
